Measured values taken from ChEMBL document CHEMBL2086308, “Cytotoxic 2-phenyacrylnitriles, the importance of the cyanide moiety and discovery of potent broad spectrum cytotoxic agents” (2012).

How the values were obtained:
Format in all cases: functional
MIA PaCa-2 [1] = assay: Growth inhibition of human MIAPaCa2 cells assessed as reduction in cell growth after 72 hrs by MTT assay; conditions: MIA PaCa-2, 72 h
SW480 [2] = assay: Growth inhibition of human SW480 cells assessed as reduction in cell growth after 72 hrs by MTT assay; conditions: SW480, 72 h
A-431 [3] = assay: Growth inhibition of human A431 cells assessed as reduction in cell growth after 72 hrs by MTT assay; conditions: A-431, 72 h
A2780 [4] = assay: Growth inhibition of human A2780 cells assessed as reduction in cell growth after 72 hrs by MTT assay; conditions: A2780, 72 h
NCI-H460 [5] = assay: Growth inhibition of human H460 cells assessed as reduction in cell growth after 72 hrs by MTT assay; conditions: NCI-H460, 72 h
MCF7 [6] = assay: Growth inhibition of human MCF7 cells assessed as reduction in cell growth after 72 hrs by MTT assay; conditions: MCF7, 72 h
DU-145 [7] = assay: Growth inhibition of human DU145 cells assessed as reduction in cell growth after 72 hrs by MTT assay; conditions: DU-145, 72 h
HT-29 [8] = assay: Growth inhibition of human HT-29 cells assessed as reduction in cell growth after 72 hrs by MTT assay; conditions: HT-29, 72 h
[9] = Growth inhibition of human BE(2)-C cells assessed as reduction in cell growth after 72 hrs by MTT assay
[10] = Growth inhibition of human SJ-G2 cells assessed as reduction in cell growth after 72 hrs by MTT assay; conditions: SJ-G2, 72 h
[11] = Growth inhibition of mouse SMA cells assessed as reduction in cell growth after 72 hrs by MTT assay
A2780 [12] = assay: Growth inhibition of human A2780 cells assessed as reduction in cell growth at 25uM after 72 hrs by MTT assay; conditions: A2780, 72 h, read-out: GI
MIA PaCa-2 [13] = assay: Growth inhibition of human MIAPaCa2 cells assessed as reduction in cell growth at 25uM after 72 hrs by MTT assay; conditions: MIA PaCa-2, 72 h, read-out: GI
[14] = Growth inhibition of human BE(2)-C cells assessed as reduction in cell growth at 25uM after 72 hrs by MTT assay; conditions: read-out: GI
[15] = Growth inhibition of human SJ-G2 cells assessed as reduction in cell growth at 25uM after 72 hrs by MTT assay; conditions: SJ-G2, 72 h, read-out: GI
DU-145 [16] = assay: Growth inhibition of human DU145 cells assessed as reduction in cell growth at 25uM after 72 hrs by MTT assay; conditions: DU-145, 72 h, read-out: GI
SW480 [17] = assay: Growth inhibition of human SW480 cells assessed as reduction in cell growth at 25uM after 72 hrs by MTT assay; conditions: SW480, 72 h, read-out: GI
HT-29 [18] = assay: Growth inhibition of human HT-29 cells assessed as reduction in cell growth at 25uM after 72 hrs by MTT assay; conditions: HT-29, 72 h, read-out: GI
[19] = Growth inhibition of mouse SMA cells assessed as reduction in cell growth at 25uM after 72 hrs by MTT assay; conditions: read-out: GI
NCI-H460 [20] = assay: Growth inhibition of human H460 cells assessed as reduction in cell growth at 25uM after 72 hrs by MTT assay; conditions: NCI-H460, 72 h, read-out: GI
A-431 [21] = assay: Growth inhibition of human A431 cells assessed as reduction in cell growth at 25uM after 72 hrs by MTT assay; conditions: A-431, 72 h, read-out: GI
MCF7 [22] = assay: Growth inhibition of human MCF7 cells assessed as reduction in cell growth at 25uM after 72 hrs by MTT assay; conditions: MCF7, 72 h, read-out: GI

SMILES | GI50 (MIA PaCa-2 [1]) | GI50 (SW480 [2]) | GI50 (A-431 [3]) | GI50 (A2780 [4]) | GI50 (NCI-H460 [5]) | GI50 (MCF7 [6]) | GI50 (DU-145 [7]) | GI50 (HT-29 [8]) | GI50 [9] | GI50 [10] | GI50 [11] | inhibition of growth at 25 µM (A2780 [12]) | inhibition of growth at 25 µM (MIA PaCa-2 [13]) | inhibition of growth at 25 µM [14] | inhibition of growth at 25 µM [15] | inhibition of growth at 25 µM (DU-145 [16]) | inhibition of growth at 25 µM (SW480 [17]) | inhibition of growth at 25 µM (HT-29 [18]) | inhibition of growth at 25 µM [19] | inhibition of growth at 25 µM (NCI-H460 [20]) | also measured
N#C/C(=C\c1ccc([N+](=O)[O-])cc1)c1ccc(Cl)c(Cl)c1 | 27 µM | 8.4 µM | 7.1 µM | 12 µM | 69 µM | 0.127 µM | 18 µM | 3.1 µM | 8.9 µM | 14 µM |  |  |  |  |  |  |  |  |  |  | 
N#C/C(=C\c1ccc(C(F)(F)F)cc1)c1ccc(Cl)c(Cl)c1 | 35 µM | 49 µM | 53 µM | 41 µM | 36 µM | 31 µM | 45 µM | 35 µM | 43 µM | 41 µM | 45 µM |  |  |  |  |  |  |  |  |  | 
N#C/C(=C\c1c[nH]c2ccccc12)c1ccc(Cl)c(Cl)c1 | 1.6 µM | 2.1 µM | 0.8 µM | 0.9 µM | 1 µM | 1.3 µM | 3.1 µM | 0.85 µM | 1 µM | 1.7 µM | 1.3 µM |  |  |  |  |  |  |  |  |  | 
N#C/C(=C\c1ccco1)c1ccc(Cl)c(Cl)c1 | 46 µM | 45 µM | 39 µM | 38 µM | 52 µM | 7 µM | 42 µM | 36 µM | 38 µM | 50 µM | 36 µM |  |  |  |  |  |  |  |  |  | 
N#C/C(=C\c1ccc(F)cc1)c1ccc(Cl)c(Cl)c1 | 11 µM | 5.6 µM | 10 µM | 9.5 µM | 10 µM | 6.5 µM | 18 µM | 9.3 µM | 13 µM | 16 µM |  |  |  |  |  |  |  |  |  |  | 
COc1ccc(/C=C(\C#N)c2ccc(Cl)c(Cl)c2)cc1 | 0.7 µM | 1.4 µM | 0.6 µM | 0.7 µM | 0.7 µM | 0.6 µM | 1.4 µM | 0.52 µM | 2.7 µM | 1.5 µM |  |  |  |  |  |  |  |  |  |  | 
O=C(O)/C(=C\c1ccc([N+](=O)[O-])cc1)c1ccc(Cl)c(Cl)c1 |  |  |  |  |  |  |  |  |  |  |  | < 10% | < 10% | < 10% | < 10% | < 10% | < 10% | 28% | < 10% | < 10% | inhibition of growth at 25 µM (A-431 [21]): < 10%; inhibition of growth at 25 µM (MCF7 [22]): 11%
COc1ccc(/C=C(\C(=O)O)c2ccc(Cl)c(Cl)c2)cc1 |  |  |  |  |  |  |  |  |  |  |  | < 10% | < 10% | < 10% | < 10% | < 10% | < 10% | 11% | < 10% | < 10% | inhibition of growth at 25 µM (A-431 [21]): < 10%; inhibition of growth at 25 µM (MCF7 [22]): < 10%
N#C/C(=C\c1ccc(-c2ccccc2)o1)c1ccc(Cl)c(Cl)c1 |  |  |  |  |  |  |  |  |  |  |  | 13% | < 10% | < 10% | < 10% | < 10% | < 10% | 15% | < 10% | 11% | inhibition of growth at 25 µM (A-431 [21]): < 10%; inhibition of growth at 25 µM (MCF7 [22]): < 10%
